Like-named read-outs stand apart in the source and are kept apart here. Residues, ends and D or L forms follow the SMILES beside them. *: point of attachment. AMC = Cc1cc(=O)oc2cc(N*)ccc12; Cbz = O=C(OCc1ccccc1)*
Assays:
[1] = target: T1, CTL (Recombinant human Cathepsin L) (Homo sapiens, UniProt P07711); experiment: HPLC analysis of probe processing by CTL; type: biochemical; details: incubated with CTL in buffer at pH 5.0
T1 construct: purchased Abcam ab174030
Method: To confirm recognition of CTLAP by CTL, the probe was incubated with CTL in buffer at pH 5.0, and the probe was examined by HPLC analysis (FIG. 2). The compound alone in buffer retained maximum absorption at 330 nm.
[4-105] Cathepsin L reconstituted as per manufacturer's instructions, then diluted in a preliminary cathepsin storage buffer, in line with a literature procedure^16 (100 mM NaOAc/MaOH, 100 mM NaCl, 10 mM DTT, 1 mM EDTA, pH 5.5). Frozen in −80° C. freezer, and a portion removed and diluted in more cathepsin storage buffer to create 100 nM stock.
In opaque-bottom […], buffer (unfiltered) plated, then probes added, then enzyme added. Final solution in each well was 5 uM probe, 5 nM CTL, 10% DMSO/NaOAc buffer. Incubated at 37° C., removed at 10 min, 30 min, 1 h, and 4 h for measurement on plate reader (Synergy H1). […] Stored in tin foil at rt for 2 days, then stored in fridge.
To observe probe conversion, a well was diluted with DI water and injected into HPLC. […] The UV absorption traces of the new product(s) matched that of AMC.

CTB, CTV, and CTS = experiment: Time-course cathepsin assay, total competing signal (sum of CTB, CTV, and CTS) normalized to CTL; type: biochemical, human; details: 5 uM probe, 5 nM enzyme
Source text: (§1) CTV and CTB appear to remain within the initial velocity region of the curves during this time, with a markedly lower slope than that observed for CTL initially.
(§2) The kinetic assays were repeated at pH 5.0 (FIG. 3C, D), and overall the same trends were observed as at pH 6.5. One notable difference is the altered reaction slope of CTL at this pH, which appears to have less of a plateau and instead seems to shift to a second phase of constant, yet slower, velocity. […] This improved activity of CTB at low pH is consistent with previous observations that CTB's unique carboxypeptidase activity is dependent on an acidic environment, and that this activity is disengaged at neutral pH^13.
(§3) To estimate relative selectivity of the compounds for CTL over the other enzymes, the intensity at each time point for CTB, CTV, or CTS, was divided by the intensity of CTL at the same time point; this normalizes CTL-generated signal intensity to 1.0, and expresses the relative signal generated by the other enzymes (FIG. 5). These graphs indicate that off-target signal is least prominent within the first 10 min of incubation, as the faster kinetics of the probes to CTL generate more contrast at these earlier time points. To quantify the selectivity of CTLAP and sc-3136, the lowest interfering signal from each enzyme was identified and tabulated in Table 1. Also identified was the assay time at which the total competing signal (sum of CTB, CTV, and CTS) was lowest, and the relative intensity of all competing enzymes at that time point. […] The optimum results are achieved within 10 min incubation time, lending strength to the application of CTLAP for rapid detection of CTL, even in the presence of competing enzymes.
Table 1. Signal generated by CTB, CTV, and CTS, or all three enzymes together, relative to CTL signal at that time point. The lowest competing signal over the time course in FIG. 5 was selected for each individual enzyme, as well as for the sum of signals from all three enzymes. The time point at which the sum of all competing signals is lowest is also listed.
• 1. Recombinant human Cathepsin L/MEP protein (Active) • a. Product ab174030; Lot No. (Conc.) GR3210572-1 (N/A) Sino Biological • 1. Human Cathepsin B/CTSB Protein (His Tag) • a. Cat. No. 10483-H08H • 2. Human Cathepsin V/Cathepsin L2/Preproprotein Protein (His Tag) • a. Cat. No. 10093-H08H • 3. Human Cathepsin S/CTSS Protein (His Tag) • a. Cat. No. 10487-H08H Santa Cruz Biotechnology, Inc. • 1. […]
(§4) Cathepsins reconstituted as usual and diluted into cathepsin reaction buffers (pH 5.0 or 6.5) in an opaque-bottom 96-well plate. Probes added quickly to each active well, then emission measured immediately on BioTek Synergy H1 plate reader, collecting consecutive 36 sec runs over the first 15 min of reaction time. […]

[2] = target: CTB (Human Cathepsin B/CTSB Protein) (Homo sapiens, UniProt P07858); experiment: Time-course cathepsin assay, CTB signal normalized to CTL; type: biochemical; details: 5 uM probe, 5 nM enzyme, lowest competing signal over time course
Source text: as §1, §2, §3
(§5) • 1. Recombinant human Cathepsin L/MEP protein (Active) • a. Product ab174030; Lot No. (Conc.) GR3210572-1 (N/A) Sino Biological • 1. Human Cathepsin B/CTSB Protein (His Tag) • a. Cat. No. 10483-H08H • 2. Human Cathepsin V/Cathepsin L2/Preproprotein Protein (His Tag) • a. Cat. No. 10093-H08H • 3. Human Cathepsin S/CTSS Protein (His Tag) • a. Cat. No. 10487-H08H Santa Cruz Biotechnology, Inc. • 1. […] Enzyme storage and preparation:
(§6) Cathepsins reconstituted as usual and diluted into cathepsin reaction buffers (pH 5.0 or 6.5) in an opaque-bottom 96-well plate. Probes added quickly to each active well, then emission measured immediately on BioTek Synergy H1 plate reader, collecting consecutive 36 sec runs over the first 15 min of reaction time. Final probe concentration was 5 uM and final enzyme concentration was 5 nM.

[3] = Molar attenuation coefficient and quantum yield; type: physicochemical; details: for ε × 10^−3 (molar attenuation coefficient): absorption at 350 nm, standardized against 4-methylumbelliferone (MU); for ϕF (quantum yield): excitation 350 nm, emission 380-600 nm, standardized against MU
Method: To determine quantum yields, standard curves of CTLAP and sc-3136 were constructed between 0-10 μM in buffer, and the absorbance and total emission was measured. Values for the molar attenuation coefficient and quantum yield were standardized using measured absorption and emission intensity of 4-methylumbelliferone (MU) and its literature quantum yield and molar attenuation coefficient^14. Absorption of the solutions at 350 nm was measured, and all three compounds reported good (R^2>0.96) linear fit with increasing concentration (FIG. 10A). To measure total emission intensity, the emission spectrum of each compound was collected between 380-600 nm at an excitation wavelength of 350 nm; the area under the emission curve was calculated and graphed as a function of absorption value at 350 nm for each sample (FIG. 10B).
Compounds were compared to 4-methylumbelliferone (4-MU) and 2,4-difluoro-4-methylumbelliferone (DiFMU).
To construct calibration curves, stock solutions of 4-MU and DiFMU were prepared at ˜1 mM, then diluted with buffer (carbonate buffer, pH 10) to 50 uM. From these solutions, standard curves were constructed at 50, 25, 10, 5, and 1 uM by dilution with carbonate buffer, pH 10.1. Solutions were plated in 96-well plates. Absorbance at 350 nm was measured, and the fluorescence curve at 350 nm excitation and 380-600 nm was measured. The absorbance at 350 nm was graphed against the area under the curve (AUC) of the fluorescence spectrum from 380-600 nm, and the slope of each line was used to calculate the quantum yield according to the equation: […]

[4] = Background emission intensity of probes in buffer without enzyme; type: physicochemical; details: for emission intensity (background): stocks of equal absorbance at 330 nm, quadruplicate
Method: This is attributed to the lower emission intensity observed in CTLAP in buffer without enzyme; the measured emission intensity of the compound at 5 μM is consistently 6- to 8-fold lower than that of sc-3136 (FIG. 6). As low background signal can improve the sensitivity and detection limit of fluorogenic assays, we sought to identify the cause of the low background intensity of CTLAP. We first examined the spectral and photophysical properties of the compound to confirm that this low background intensity was not an artifact of experimental methods.
We next tested hypothesis (2), that the emission intensity measured for CTLAP or sc-3136 was somehow compromised by the experimental conditions or by the structural differences of the compounds.
To duplicate unexpected absorbances from 4-131, stocks of probes from 4-128 used to create true 50 uM stocks. UV absorbance at 330 nm measured in a 96-well plate, then 150 uL transferred to an opaque-bottom plate and emission intensity (350/445 nm) was measured. Experiments run in quadruplicate, with a buffer blank. Measured on a BioTek Synergy H1.
50 uL of these solutions were diluted with 150 uL cathepsin L reaction buffer (pH 5.0) to give solutions of 5 uM compound in 25% DMSO/buffer. These samples were used to measure UV-Vis spectra (250-400 nm) on a Shimadzu UV-2700. A blank solution of 25% DMSO/buffer was used to baseline the instrument. Between samples, the cuvette was flushed with 200 uL DMSO, drained, and the next sample was added.
The remaining 150 uL of solution was diluted with 450 uL buffer to give 600 uL of 5 uM compound in 25% DMSO/buffer. The solution was transferred to an opaque-bottom 96-well plate, in three aliquots of 200 uL. The plate was used to measure emission and excitation spectra, and quantitative endpoint emission intensities. All spectral scans were collected at 50 Gain, in 5 nm steps.

[5] = target: T1, CTL (Recombinant human Cathepsin L); experiment: Probe activation by CTL, turn-on ratio and selectivity; type: biochemical
Method: as §1
To determine the relative selectivity of either probe for CTL, we examined the turn-on ratio (TOR) of the probes in response to each enzyme over the first hour of incubation by dividing the emission intensity at each time point by the average intensity of the probe in buffer without enzyme (FIG. 4).
as §5
Enzyme stocks (2.5 uM) were thawed and diluted to 100 nM with cathepsin storage buffer (pH 5.5). From calibrated probe stocks were created 50 uM working stocks in DMSO (3-157 accidentally prepared to 62.5 uM instead). In a 96-well plate, solutions of cathepsin reaction buffer (either pH 5.0 or 6.5), enzyme (5 nM), and probe (5 uM) were prepared. Probe added last to the reaction wells, then read in Synergy H1 plate reader immediately (˜5 min) for emission intensity at 350-445 nm. The plate was read at various time points, then stored in fridge overnight but not quenched. The pH 5.0 plate was read again after 48 h to capture completed reaction stage, and to collect emission spectra at 350 nm excitation for both caged and activated compound wells. […]
as §4

[6] = target: T2, CTS (Human Cathepsin S/CTSS Protein) (Homo sapiens, UniProt P25774); experiment: Time-course cathepsin assay, CTS signal normalized to CTL; type: biochemical; details: 5 uM probe, 5 nM enzyme, lowest competing signal over time course
T2 construct: His; purchased Sino Biological 10487-H08H
Source text: as §1, §2, §3, §5, §6

[7] = target: T3, CTV (Human Cathepsin V/Cathepsin L2) (Homo sapiens, UniProt O60911); experiment: Time-course cathepsin assay, CTV signal normalized to CTL; type: biochemical; details: 5 uM probe, 5 nM enzyme, lowest competing signal over time course
T3 construct: His; purchased Sino Biological 10093-H08H
Source text: as §1, §2, §3, §5, §6

[8] = standard, literature value; cited from earlier work

T3 sequence (O60911 114-334): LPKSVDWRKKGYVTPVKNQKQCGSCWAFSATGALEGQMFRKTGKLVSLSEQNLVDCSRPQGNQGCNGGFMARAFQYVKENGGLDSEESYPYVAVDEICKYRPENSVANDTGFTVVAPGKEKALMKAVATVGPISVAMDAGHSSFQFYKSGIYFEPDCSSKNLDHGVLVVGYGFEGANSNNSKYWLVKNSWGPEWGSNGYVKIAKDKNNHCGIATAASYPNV
T1 sequence (P07711 114-333): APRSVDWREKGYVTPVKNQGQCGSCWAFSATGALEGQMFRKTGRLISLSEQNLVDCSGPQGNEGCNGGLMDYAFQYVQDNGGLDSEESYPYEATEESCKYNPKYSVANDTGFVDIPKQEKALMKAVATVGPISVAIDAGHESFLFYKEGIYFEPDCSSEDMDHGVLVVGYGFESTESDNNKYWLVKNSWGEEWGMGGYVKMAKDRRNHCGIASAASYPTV
T2 sequence (P25774 115-331): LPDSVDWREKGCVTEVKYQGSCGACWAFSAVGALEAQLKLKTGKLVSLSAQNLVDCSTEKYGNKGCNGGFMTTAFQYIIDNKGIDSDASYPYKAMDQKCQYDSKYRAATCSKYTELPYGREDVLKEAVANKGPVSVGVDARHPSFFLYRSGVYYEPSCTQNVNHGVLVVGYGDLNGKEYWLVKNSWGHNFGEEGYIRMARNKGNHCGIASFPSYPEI

| Lowest sum of signals from all three enzymes (B + V + S) normalized to CTL (CTB, CTV, and CTS; pH 5.0) [%] | Lowest sum of signals from all three enzymes (B + V + S) normalized to CTL (CTB, CTV, and CTS; pH 6.5) [%] | Optimal (lowest) CTB signal normalized to CTL ([2]; pH 5.0) [%] | Optimal (lowest) CTB signal normalized to CTL ([2]; pH 6.5) [%] | ε × 10^−3 (molar attenuation coefficient) [3] | ϕF (quantum yield) [3] | emission intensity (background) ([4]; 350/445 nm) [rfu] | Optimal (lowest) CTS signal normalized to CTL ([6]; pH 5.0) [%] | Optimal (lowest) CTS signal normalized to CTL ([6]; pH 6.5) [%] | Optimal (lowest) CTV signal normalized to CTL ([7]; pH 5.0) [%] | Optimal (lowest) CTV signal normalized to CTL ([7]; pH 6.5) [%] | Compound | other results |
| --- | --- | --- | --- | --- | --- | --- | --- | --- | --- | --- | --- | --- |
| 31 | 25 | 15 | 6 | 11.0 | 0.02 | 6.1e3 | 1 | 1 | 10 | 15 | Cc1cc(=O)oc2cc(NC(=O)C(CCCCN)NC(=O)C(Cc3ccc(-c4cccs4)cc3)NC(=O)OCc3ccccc3)ccc12 (centres unmarked) [CTLAP] | conversion of probe to free AMC peak (HPLC) [1]: full conversion; emission intensity in buffer without enzyme, fold lower than sc-3136 ([4]; compound at 5 μM, 350 nm excitation, 445 nm emission): 6- to 8 fold; selectivity for CTL over other cathepsins [5]: 6- to 10 fold; turn-on ratio (TOR) relative to that of sc-3136 ([5]; after 1 h incubation): approximately 4 fold; increase in emission intensity ([5]; within 10 min of incubation with CTL): 24 fold |
| – | – | – | – | – | – | – | – | – | – | – | Cc1cc(=O)oc2cc(O)ccc12 [MU, 4-methylumbelliferone] | ε × 10^−3 (molar attenuation coefficient) [8]: 19.3; ϕF (quantum yield) [8]: 0.63 |
| 39 | 46 | 16 | 21 | 7.5 | 0.32 | 4.8e4 | 7 | 7 | 14 | 16 | Cc1cc(=O)oc2cc(NC(=O)C(CCCN=C(N)N)NC(=O)C(Cc3ccccc3)NC(=O)OCc3ccccc3)ccc12 (stereo not drawn) [sc-3136, Z-FR-AMC] (Cbz-Phe-Arg-{AMC}; configuration not given here) | ratio of background intensity for sc-3136 over 3-157 ([4]; 350/445 nm): 7.8 ×; emission intensity ratio between sc-3136 and CTLAP ([4]; excitation at 330 nm): 6.9 fold; emission intensity ratio between sc-3136 and CTLAP ([4]; excitation at 350 nm): 6.3 fold |

Reference: US12384767B2, “Probe for detection of cathepsin activity” (University of Florida Research Foundation, Incorporated, priority 2020, dated 2025)
